One series deals with swine adipose tissue. Description: inhibition of lipogenesis (incorporation of radioactive glucose into lipid) in pig adipose tissue slices. In kind it is cell-based, pig (swine). The note with it: Sus scrofa, glucose-U-14C, 100 micrograms per milliliter, 37° C., 2 hours, vs control, read-out: Percent Inhibition of lipogenesis. The text has this:
(§1) The manner in which they cause this effect is not known with certainty; it is believed that they interfere with the synthesis of fatty acids in the tissues. Their effectiveness for this purpose has been ascertained by immersing samples of mammalian liver or adipose tissue in a liquid medium containing radioactive glucose and the test chemical for a period of time, then isolating the lipid from the treated tissue and determining the incorporation of the radioactive carbon into the lipid by means of scintillation counting techniques. These tests were conducted with both liver and adipose tissues, because in some animals the primary site of lipogenesis appears to be liver tissue, while in others it appears to be adipose tissue. The test animals were pigs, sheep, rabbits, cats and dogs.
Described in more detail, the tests were conducted according to the following general procedure:
Tissue slices (200 milligrams for liver; 150 milligrams for adipose tissue) were incubated, at 37° C. for 2 hours with shaking in 3 milliliters of Krebs-Ringer bicarbonate solution containing one-half the normal calcium ion concentration, 60 micromoles of glucose, 0.5 micro-Curie of glucose-U-^14 C, 300 microunits of insulin, and 5% dimethyl sulfoxide (DMSO). The test compounds were added as a solution or a suspension in DMSO and were present at a concentration of 100 micrograms per milliliter of the incubation mixture.
The incubation was terminated by addition of 0.25 milliliter of 1 N sulfuric acid. The incubation mixture was extracted with a total of 25 milliliters of chloroform:methanol (2:1, v/v). The extracts were washed according to Folch et al. (J. Biol. Chem., 226, 497-509, (1957)), air dried, and counted in a liquid scintillation counter with 15 milliliters of counting fluid (two parts toluene containing 0.4% w/v New England Nuclear Omnifluor: 1 part Triton X-100). The tests were conducted in triplicate and were accompanied by control tests in which all ingredients,proportions and conditions were the same except that no test compound was included. From the data obtained was calculated the percent inhibition of lipid synthesis by the test compound in each case.
Compound 2 was tested with respect to all of the animals. The other six compounds were tested only with respect to the pig.
From these and other tests, it was established that in pigs there is little lipogenic activity in the liver tissue. From these and other tests, it also has been established that swine adipose tissue utilizes glucose for lipogenesis, and to be the major site of fatty acid synthesis. The data obtained from the tests using adipose tissue and glucose are set out in Table 1, as the percent inhibition of lipogenesis compared to the results obtained in the control tests wherein only the test compound was omitted.

The subject of a further series is sheep liver. Description: inhibition of glucose incorporation into lipids in sheep liver slices. The settings on record: 100 micrograms per milliliter, 2 hours. In kind it is cell-based.
Source text: as §1
(§2) Described in more detail, the tests were conducted according to the following general procedure: […]
(§3) The incubation was terminated by addition of 0.25 milliliter of 1 N sulfuric acid. […] The extracts were washed according to Folch et al. (J. Biol. Chem., 226, 497-509, (1957)), air dried, and counted in a liquid scintillation counter with 15 milliliters of counting fluid (two parts toluene containing 0.4% w/v New England Nuclear Omnifluor: 1 part Triton X-100). […] From the data obtained was calculated the percent inhibition of lipid synthesis by the test compound in each case. […]

A further series concerns sheep adipose tissue. Kind of series: inhibition of glucose incorporation into lipids in sheep adipose tissue slices. The settings on record: 100 micrograms per milliliter, 2 hours. The series is classed as cell-based.
Source text: as §1, §2, §3

The next series concerns rabbit liver. Description: inhibition of glucose incorporation in rabbit liver slices. In kind it is cell-based. The settings on record: 100 micrograms per milliliter, 2 hours.
Source text: as §1, §2, §3

For the next series, the system named is rabbit adipose tissue. Kind of series: inhibition of glucose incorporation in rabbit adipose tissue slices. The settings on record: 100 micrograms per milliliter, 2 hours. The series is classed as cell-based.
Source text: as §1, §2, §3

Another series relates to cat liver. Description: inhibition of glucose utilization in cat liver slices. In kind it is cell-based. The settings on record: 100 micrograms per milliliter, 2 hours.
Source text: as §1, §2, §3

For the next series, the system named is cat adipose tissue. Description: inhibition of glucose utilization in cat adipose tissue slices. The series is classed as cell-based. The note with it: 100 micrograms per milliliter, 2 hours, result in words.
Source text: as §1, §2, §3

In another series the test system is dog adipose tissue. Description: inhibition of glucose utilization in dog adipose tissue slices. In kind it is cell-based. The settings on record: 100 micrograms per milliliter, 2 hours.
Source text: as §1, §2, §3

In series [1] the test system is lipogenesis in swine adipose tissue. Kind of series: in vivo test of inhibition of lipogenesis in swine, compound in feed, adipose tissue biopsy samples. Set-up: species or system pig (swine). The settings on record: young, growing pigs, in feed approximately 50 milligrams per kilogram per day for seven days. The protocol: The effect of compound 2 on inhibition of lipogenesis in swine was confirmed by an in vivo test in which Compound 2 was included in the feed given to young, growing pigs for seven days, at a dosage of approximately 50 milligrams of Compound 2 per kilogram of the pig's body weight per day. Adipose tissue biopsy samples were taken at days 0, 6, 7 and 13 (one week off the drug) and the effect of the test compound on lipogenesis was determined using tissue slices prepared from the biopsy samples, by the procedure used in the in vitro tests.

Structures are written as SMILES.

`C=CCNC(=O)C1CCc2cc(Cl)ccc2O1` (stereo not drawn) [Compound 1, 6-Chloro-3,4-dihydro-N-(2-propenyl)-2H-1-benzopyran-2-carboxamide]: the inhibition at 100 µg/mL in the series with swine adipose tissue is 59%.
On to `C=CCNC(=O)[C@@H]1C[C@H](O)c2cc(Cl)ccc2O1` (relative stereo) [Compound 7, 6-Chloro-4-hydroxy-N-(2-propenyl)-2H-1-benzopyran-2-carboxamide (cis)], for which the inhibition at 100 µg/mL in the series with swine adipose tissue was 55%.
For `C=CCNC(=O)C1COc2ccccc2C1` (stereo not drawn) [Compound 2, 3,4-Dihydro-N-(2-propenyl)-2H-1-benzopyran-3-carboxamide], in the series with swine adipose tissue, the inhibition at 100 µg/mL is 83%. Also, the “inhibition of glucose incorporation in the liver” value in the series with sheep liver worked out at 32%. In addition, the entries for the “inhibition of glucose incorporation in adipose tissue” value with sheep adipose tissue and with rabbit adipose tissue were 36% and 22%, respectively. Besides, the “inhibition of glucose incorporation into liver” value in the series with rabbit liver worked out at 9%. In addition, the “inhibition of glucose utilization in the liver” value in the series with cat liver is on record as 26%. In addition, the “inhibition of glucose utilization in adipose tissue” value in the series on cat adipose tissue is on record as “did not inhibit glucose utilization”; in the series with dog adipose tissue, 73%. In addition, in series [1], the symptom of toxicity result is on record as “No symptom of toxicity due to the test compound was noted”. In series [1] (day 13 (one week off the drug)), the “effect on lipogenesis in vivo” value was “significantly reduced lipogenesis”.
For `C=CCNC(=O)C1COc2ccc(Cl)cc2C1` (stereo not drawn) [Compound 6, 6-Chloro-3,4-dihydro-N-(2-propenyl)-2H-1-benzopyran-3-carboxamide], the inhibition at 100 µg/mL with swine adipose tissue turned out to be 67%.
On to `C=CCNC(=O)C1CCc2ccccc2O1` (stereo not drawn) [Compound 3, 3,4-Dihydro-N-(2-propenyl)-2H-1-benzopyran-2-carboxamide], for which the inhibition at 100 µg/mL with swine adipose tissue is 72%.
The same measure, in the same setting: as for `C=CCNC(=O)C1CCc2cc(-c3ccccc3)ccc2O1` (stereo not drawn) [Compound 4, 3,4-Dihydro-6-phenyl-N-(2-propenyl)-2H-1-benzopyran-2-carboxamide], the figure is 76%; as for `C=CCNC(=O)C1CCc2cc(C3CCCCC3)ccc2O1` (stereo not drawn) [Compound 5, 6-Cyclohexyl-3,4-dihydro-N-(2-propenyl)-2H-1-benzopyran-2-carboxamide], 40%; as for `C=CCNC(=O)C1CCc2cc(C)ccc2O1` (stereo not drawn) [Compound 9, 3,4-Dihydro-6-methyl-N-(2-propenyl)-2H-1-benzopyran-2-carboxamide], 70%.
Same read-out and setting: to `C=CCNC(=O)C1CCc2cc(Oc3ccccc3)ccc2O1` (stereo not drawn) [Compound 8, 3,4-Dihydro-6-phenoxy-N-(2-propenyl)-2H-1-benzopyran-2-carboxamide] belongs 64%.

By inhibition is commonly meant the percentage by which the read-out fell short of the control.

Source of the values: US4178380A, “Benzopyrancarboxamides” (Shell Oil Company, priority 1978, dated 1979).
